pIC50: −log10 of the molar value.

The assay concerns eIF4E Ser209 phosphorylation in Hela cells. In words: MNK cell-based assay (AlphaScreen SureFire, eIF4E Ser209 phosphorylation). The following applies: Homo sapiens; eIF4E Ser209 phosphorylation, Hela cells, 2 hours; read-out: IC50 Hela. An excerpt:
It has been reported that Ser209 of eIF4E is solely phosphorylated by the MNK enzymes. The ability of compounds to inhibit this process in Hela cells was investigated using the AlphaScreen SureFire® assay platform from Perkin Elmer (Waltham, Mass.). eIF4E phosphorylated on Ser209 is recognized by two antibodies, the first which is fused to a streptavidin coated donor bead binds to an epitope away from Ser209, the second which is fused to a protein A conjugated acceptor bead binds to phosphorylated Ser209. The phosphorylation of eIF4E on Ser209 brings the two antibodies into close proximity and when excited by a laser a singlet oxygen is released by the donor bead which excites the acceptor bead resulting in the emission of light. This enables the monitoring of eIF4E Ser209 phosphorylation and its inhibition in a cellular context.
Hela cells were seeded into microtitre plates (30,000 cells per well) in 100 μl of culture medium and incubated at 37° C. for 24 hours. The media was then removed by aspiration and the cells resuspended in 50 μl of serum free medium containing the test compound and incubated at 37° C. for 2 hours. The culture medium was again removed by aspiration and the cells resuspended in lysis buffer (provided in Perkin Elmer SureFire® Assay Kit). After agitation at 350 rpm for 20 minutes at 22° C., 4 μl was transferred to a 384 well OptiPlate™ (Perkin Elmer, Waltham, Mass.). To each well was added 5 μl of acceptor mix; the plate was sealed and agitated gently at 22° C. for 2 hours. Then, in subdued light, 2 μl of donor mix was added to each well, the plate was sealed, wrapped in aluminum foil and agitated gently at 22° C. for 2 hours. Emission was measured using the EnVision® plate reader (Perkin Elmer, Waltham, Mass.).
Inhibition constants (IC50) were determined by plotting AlphaScreen signal versus log compound concentration and fitting with a non-linear regression algorithm using GraphPad Prism (GraphPad Software Inc.).
In general terms: Bead proximity is the source of the signal in Alpha formats.

Turning to `CN(C)C1CCN(C(=O)c2ccc(-c3ccc4ncc(-c5ccc(C#N)cc5)n4n3)cc2)CC1` [Example 63], the pIC50 is above 6.00.

In the case of `N#Cc1ccc(-c2cnc3ccc(-c4ccc(C(=O)N5CCCOCC5)cc4)nn23)cc1` [Example 64, 4-(6-(4-(1,4-oxazepane-4-carbonyl)phenyl)imidazo[1,2-b]pyridazin-3-yl)benzonitrile], the pIC50 is above 6.00.

With `N#Cc1ccc(-c2cnc3ccc(-c4ccc(C(=O)N5CCNCC5)cc4)nn23)cc1` [Example 65, 4-(6-(4-(piperazine-1-carbonyl)phenyl)imidazo [1,2-b]pyridazin-3-yl)benzonitrile], the pIC50 is above 6.00.

For the molecule `CCC1(NC(C)=O)CCN(C(=O)c2ccc(-c3ccc4ncc(-c5ccc(C#N)cc5)n4n3)cc2)CC1` [Example 66, N-(1-(4-(3-(4-cyanophenyl)imidazo[1,2-b]pyridazin-6-yl)benzoyl)-4-ethylpiperidin-4-yl)acetamide], the pIC50 was above 6.00.

On to `N#Cc1ccc(-c2cnc3ccc(-c4ccc(C(=O)N5CCNC(=O)C5)cc4)nn23)cc1` [Example 68, 4-(6-(4-(3-oxopiperazine-1-carbonyl)phenyl)imidazo [1,2-b]pyridazin-3-yl)benzonitrile], for which the pIC50 was above 6.00.

Take `CN1CCN(C(=O)c2ccc(-c3ccc4ncc(-c5ccc(C#N)cc5)n4n3)cc2)CC1=O` [Example 69, 4-(6-(4-(4-methyl-3-oxopiperazine-1-carbonyl)phenyl)imidazo[1,2-b]pyridazin-3-yl)benzonitrile]: the pIC50 was above 6.00.

Take `CN1CCN(C2CCN(C(=O)c3ccc(-c4ccc5ncc(-c6ccc(C#N)cc6)n5n4)cc3)CC2)CC1` [Example 70, 4-(6-(4-(4-(4-methylpiperazin-1-yl)piperidine-1-carbonyl)phenyl)imidazo [1,2-b]pyridazin-3-yl)benzonitrile]: the pIC50 is above 6.00.

`N#Cc1ccc(-c2cnc3ccc(-c4ccc(C(=O)N5CCC6(CCCCN6)CC5)cc4)nn23)cc1` [Example 71, 4-(6-(4-(1,9-diazaspiro[5.5]undecane-9-carbonyl)phenyl)imidazo [1,2-b]pyridazin-3-yl)benzonitrile]: the pIC50 is above 6.00.

As to `CN1CCN(C(=O)c2ccc(-c3ccc4ncc(-c5ccc(C#N)cc5)n4n3)cc2Cl)CC1` [Example 72, 4-(6-(3-chloro-4-(4-methylpiperazine-1-carbonyl)phenyl)imidazo[1,2-b]pyridazin-3-yl)benzonitrile], the pIC50 was above 6.00.

With `CN1CCN(C(=O)c2ccc(-c3ccc4ncc(-c5ccc(C#N)cc5)n4n3)cc2F)CC1` [Example 73, 4-(6-(3-fluoro-4-(4-methylpiperazine-1-carbonyl)phenyl)imidazo[1,2-b]pyridazin-3-yl)benzonitrile], the pIC50 was above 6.00.

In the case of `Cc1cc(-c2ccc3ncc(-c4ccc(C#N)cc4)n3n2)ccc1C(=O)N1CCN(C)CC1` [Example 74, 4-(6-(3-methyl-4-(4-methylpiperazine-1-carbonyl)phenyl)imidazo[1,2-b]pyridazin-3-yl)benzonitrile], the pIC50 was above 6.00.

For `COc1cc(C(=O)N2CCN(C)CC2)ccc1-c1ccc2ncc(-c3ccc(C#N)cc3)n2n1` [Example 78, 4-(6-(2-methoxy-4-(4-methylpiperazine-1-carbonyl)phenyl)imidazo[1,2-b]pyridazin-3-yl)benzonitrile], the pIC50 is above 6.00.

As to `CN1CCN(C(=O)c2ccc(-c3ccc4ncc(-c5ccc(C#N)cc5)n4n3)cc2[N+](=O)[O-])CC1` [Example 79, 4-(6-(4-(4-methylpiperazine-1-carbonyl)-3-nitrophenyl)imidazo[1,2-b]pyridazin-3-yl)benzonitrile], the pIC50 was above 6.00.

For `CC(=O)Nc1cc(-c2ccc3ncc(-c4ccc(C#N)cc4)n3n2)ccc1C(=O)N1CCC(N(C)C)CC1` [Example 81, N-(5-(3-(4-cyanophenyl)imidazo[1,2-b]pyridazin-6-yl)-2-(4-(dimethylamino)piperidine-1-carbonyl)phenyl)acetamide], the pIC50 was above 6.00.

Turning to `CN1CCN(C(=O)c2ccc(-c3ccc4ncc(-c5ccc6c(c5)CC(=O)N6)n4n3)cc2)CC1` [Example 85, 5-(6-(4-(4-methylpiperazine-1-carbonyl)phenyl)imidazo [1,2-b]pyridazin-3-yl)indolin-2-one], the pIC50 was above 6.00.

For the molecule `CN1CCN(C(=O)c2ccc(-c3ccc4ncc(-c5ccc6[nH]ncc6c5)n4n3)cc2)CC1` [Example 86, (4-(3-(1H-indazol-5-yl)imidazo[1,2-b]pyridazin-6-yl)phenyl)(4-methylpiperazin-1-yl)methanone], the pIC50 is above 6.00.

Consider `CN1CCN(C(=O)c2ccc(-c3ccc4ncc(-c5ccc6[nH]cnc6c5)n4n3)cc2)CC1` [Example 87, (4-(3-(1H-benzo[d]imidazol-5-yl)imidazo[1,2-b]pyridazin-6-yl)phenyl)(4-methylpiperazin-1-yl)methanone], for which the pIC50 is above 6.00.

`CN1CCN(C2CCN(C(=O)c3ccc(-c4ccc5ncc(-c6ccc7c(c6)CC(=O)N7)n5n4)cc3)CC2)CC1` [Example 89, 5-(6-(4-(4-(4-methylpiperazin-1-yl)piperidine-1-carbonyl)phenyl)imidazo[1,2-b]pyridazin-3-yl)indolin-2-one]: the pIC50 was above 6.00.

As to `O=C1Cc2cc(-c3cnc4ccc(-c5ccc(C(=O)N6CCC(N7CCOCC7)CC6)cc5)nn34)ccc2N1` [Example 94, 5-(6-(4-(4-morpholinopiperidine-1-carbonyl)phenyl)imidazo[1,2-b]pyridazin-3-yl)indolin-2-one], the pIC50 is above 6.00.

As for `CN1CCN(C(=O)c2ccc(-c3ccc4ncc(-c5ccc(C#N)cc5)n4c3)cc2)CC1` [Example 95, 4-(6-(4-(4-Methylpiperazine-1-carbonyl)phenyl)imidazo[1,2-a]pyridin-3-yl)benzonitrile], the pIC50 was above 6.00.

For the molecule `N#Cc1ccc(-c2cnc3ccc(-c4ccc(C(=O)N5CCCOCC5)cc4)cn23)cc1` [Example 97, 4-(6-(4-(1,4-oxazepane-4-carbonyl)phenyl)imidazo [1,2-a]pyridin-3-yl)benzonitrile], the pIC50 was above 6.00.

As for `CCN1CCN(C(=O)c2ccc(-c3ccc4ncc(-c5ccc(C#N)cc5)n4c3)cc2)CC1` [Example 98, 4-(6-(4-(4-ethylpiperazine-1-carbonyl)phenyl)imidazo [1,2-a]pyridin-3-yl)benzonitrile], the pIC50 is above 6.00.

Regarding `CC(=O)NC1(C)CCN(C(=O)c2ccc(-c3ccc4ncc(-c5ccc(C#N)cc5)n4c3)cc2)CC1` [Example 99, N-(1-(4-(3-(4-cyanophenyl)imidazo[1,2-a]pyridin-6-yl)benzoyl)-4-methylpiperidin-4-yl)acetamide], the pIC50 is above 6.00.

`CCN(CC)C1(C)CCN(C(=O)c2ccc(-c3ccc4ncc(-c5ccc(C#N)cc5)n4c3)cc2)CC1` [Example 100, 4-(6-(4-(4-(diethylamino)-4-methylpiperidine-1-carbonyl)phenyl)imidazo[1,2-a]pyridin-3-yl)benzonitrile]: the pIC50 is above 6.00.

Take `CN(CC(=O)N1CCOCC1)C(=O)c1ccc(-c2ccc3ncc(-c4ccc(C#N)cc4)n3c2)cc1` [Example 101, 4-(3-(4-cyanophenyl)imidazo[1,2-a]pyridin-6-yl)-N-methyl-N-(2-morpholino-2-oxoethyl)benzamide]: the pIC50 was above 6.00.

As a reminder, the pIC50 is −log10 of the IC50, conventionally taken in molar units.

Source of the values: patent publication US20190211020A1 (Agency for Science, Technology and Research, priority 2012, published 2019).
